In US20110306597A1, “Nicotinamide Derivatives” (priority 2008, published 2011):

Biological target: human recombinant H-PGDS (Homo sapiens, UniProt O60760)
Test: Fluorescence Intensity h-PGDS TBA Enzyme Assay
Type: biochemical
Conditions: 1:175,000 human recombinant H-PGDS, highest inhibitor concentration typically 1 μM
Procedure, shortened: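 Readout is PGH2 depletion: after a 42 s reaction with 5.0 μM PGH2 and 2.5 mM glutathione (pH 8.0 Tris, 10 min inhibitor preincubation), Fe(II) converts leftover PGH2 to MDA, which forms a fluorescent TBA complex. IC50s come from 11-point, 3-fold duplicate curves, 4-parameter fit.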

human recombinant H-PGDS, sequence (O60760 whole entry): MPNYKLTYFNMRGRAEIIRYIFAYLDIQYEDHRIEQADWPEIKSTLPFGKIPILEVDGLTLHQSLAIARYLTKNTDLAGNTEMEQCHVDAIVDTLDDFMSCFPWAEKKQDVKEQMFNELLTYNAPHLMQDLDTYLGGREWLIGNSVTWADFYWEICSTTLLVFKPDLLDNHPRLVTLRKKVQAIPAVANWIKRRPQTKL

Compound	IC50 [nM]
COCCCNC(=O)c1ccc(-c2cccc(F)c2)nc1 [Example 442, 6-(3-Fluorophenyl)-N-(3-methoxypropyl)nicotinamide]	41.3
COc1cccc(-c2ccc(C(=O)NCCCN3CCCC3=O)cn2)c1 [Example 290, 6-(3-Methoxyphenyl)-N-[3-(2-oxopyrrolidin-1-yl)propyl]nicotinamide]	627
COc1ccc(CNC(=O)c2cnc(-c3cccc(F)c3)c(Cl)c2)cc1OC [Example 545, 5-Chloro-N-(3,4-dimethoxybenzyl)-6-(3-fluorophenyl)nicotinamide]	14.2
COC(=O)[C@@H](NC(=O)c1ccc(-c2cccc(F)c2)nc1)[C@@H](C)O [Example 147, Methyl N-{[6-(3-fluorophenyl)pyridin-3-yl]carbonyl}-L-threoninate]	381
Cc1cccc(-c2ccc(C(=O)NC(C)C)cn2)c1 [Example 254, N-Isopropyl-6-(3-methylphenyl)nicotinamide]	28.2
6-(3-Fluorophenyl)-N-[2- hydroxy-2-(1-methyl-1H- imidazol-2- yl)ethyl]nicotinamide [Example 4]	59.9
O=C(NCc1ccccc1)c1ccc(-c2ccc(F)cc2)nc1 [Example 499, N-Benzyl-6-(4-fluorophenyl)nicotinamide]	321
COc1ccc(C(N)CC(=O)NC(=O)c2ccc(-c3cccc(F)c3)nc2)cc1OC (stereo not drawn) [Example 196, N-[3-Amino-3-(3,4-dimethoxyphenyl)propanoyl]-6-(3-fluorophenyl)nicotinamide]	12.4
O=C(N[C@@H]1C[C@H]2CC[C@@H](C1)N2C(=O)NCCO)c1ccc(-c2cccc(F)c2)nc1 [Example 597, (3-exo)-3-({[6-(3-Fluorophenyl)-pyridin-3-yl]carbonyl}amino)-N-(2-hydroxyethyl)-8-azabicyclo[3.2.1]octane-8-carboxamide]	35
CCOC(=O)CC(NC(=O)c1ccc(-c2cccc(F)c2)nc1)c1ccccc1Cl (stereo not drawn) [Example 411, Ethyl 3-(2-chlorophenyl)-3-({[6-(3-fluorophenyl)pyridin-3-yl]carbonyl}amino)propanoate]	127
CCOC(=O)Cc1noc(CNC(=O)c2ccc(-c3cccc(F)c3)nc2)n1 [Example 201, Ethyl {5-[({[6-(3-fluorophenyl)pyridin-3-yl]carbonyl}amino)methyl]-1,2,4-oxadiazol-3-yl}acetate]	59.2
Cc1c[nH]c(CCNC(=O)c2ccc(-c3cccc(F)c3)nc2)n1 [Example 130, 6-(3-Fluorophenyl)-N-[2-(4-methyl-1H-imidazol-2-yl)ethyl]nicotinamide]	39.4
CN1CCC2(CC1)COC(CNC(=O)c1ccc(-c3cccc(F)c3)nc1)C2 (stereo not drawn) [Example 52, 6-(3-Fluorophenyl)-N-[(8-methyl-2-oxa-8-azaspiro[4.5]dec-3-yl)methyl]nicotinamide]	77.6
NC(CC(=O)NC(=O)c1ccc(-c2ccc(F)cc2)nc1)C1CC1 (stereo not drawn) [Example 269, N-(3-Amino-3-cyclopropylpropanoyl)-6-(4-fluorophenyl)nicotinamide]	672
Cc1cccc(-c2ccc(C(=O)NCC(=O)OCc3ccccc3)cn2)c1 [Example 236, Benzyl N-{[6-(3-methylphenyl)pyridin-3-yl]carbonyl}glycinate]	109
CCOC(=O)C1(NC(=O)c2ccc(-c3cccc(C)c3)nc2)CCOCC1 [Example 220, Ethyl 4-({[6-(3-methylphenyl)pyridin-3-yl]carbonyl}amino)tetrahydro-2H-pyran-4-carboxylate]	93.4
O=C(NCC1C(=O)Nc2ccc(F)cc21)c1ccc(-c2cccc(F)c2)nc1 (stereo not drawn) [Example 534, N-[(5-Fluoro-2-oxo-2,3-dihydro-1H-indol-3-yl)methyl]-6-(3-fluorophenyl)nicotinamide]	1.04
N#CC(NC(=O)c1ccc(-c2cccc(F)c2)nc1)c1ccccc1 (stereo not drawn) [Example 8, N-[Cyano(phenyl)methyl]-6-(3-fluorophenyl)nicotinamide]	25.7
COC(=O)[C@H](C)NC(=O)c1ccc(-c2cccc(OC)c2)nc1 [Example 340, Methyl N-{[6-(3-methoxyphenyl)pyridin-3-yl]carbonyl}alaninate]	≥ 1000
CSc1ccc(CNC(=O)c2ccc(-c3ccc(F)cc3)nc2)cc1 [Example 470, 6-(4-Fluorophenyl)-N-[4-(methylthio)benzyl]nicotinamide]	≥ 1000
CC(C)CNC(=O)c1ccc(-c2ccc(F)cc2)nc1 [Example 463, 6-(4-Fluorophenyl)-N-isobutylnicotinamide]	653
Cc1nc(CNC(=O)c2ccc(-c3cccc(F)c3)nc2)cs1 [Example 69, 6-(3-Fluorophenyl)-N-[(2-methyl-1,3-thiazol-4-yl)methyl]nicotinamide]	23.9
CCOC(=O)C(CNC(=O)c1ccc(-c2ccc(F)cc2)nc1)c1c(F)cccc1F (stereo not drawn) [Example 457, Ethyl 2-(2,6-difluorophenyl)-3-({[6-(4-fluorophenyl)pyridin-3-yl]carbonyl}amino) propanoate]	428

Compound	IC50 [nM]
O=C(NCCN1CCN(Cc2ccccc2)CC1)c1ccc(-c2cccc(F)c2)nc1 [Example 176, N-[2-(4-Benzylpiperazin-1-yl)ethyl]-6-(3-fluorophenyl)nicotinamide]	33.4
CC(C)N1CCC(CNC(=O)c2ccc(-c3cccc(F)c3)nc2)CC1 [Example 117, 6-(3-Fluorophenyl)-N-[(1-isopropylpiperidin-4-yl)methyl]nicotinamide]	108
Cc1nnc(C(C)NC(=O)c2ccc(-c3cccc(F)c3)nc2)[nH]1 (stereo not drawn) [Example 138, 6-(3-Fluorophenyl)-N-[1-(5-methyl-4H-1,2,4-triazol-3-yl)ethyl]nicotinamide]	287
O=C(NCCN1CCOC1=O)c1ccc(-c2cccc(F)c2)nc1 [Example 186, 6-(3-Fluorophenyl)-N-[2-(2-oxo-1,3-oxazolidin-3-yl)ethyl]nicotinamide]	34.6
COCc1cc(CNC(=O)c2ccc(-c3cccc(F)c3)nc2)n[nH]1 [Example 36, 6-(3-Fluorophenyl)-N-{[5-(methoxymethyl)-1H-pyrazol-3-yl]methyl}nicotinamide]	27.7
COc1ccc(CNC(=O)c2ccc(-c3ccccc3)nc2)cc1OC [Example 540, N-(3,4-Dimethoxybenzyl)-6-phenylnicotinamide]	5.41
COC(=O)CC(NC(=O)c1ccc(-c2ccc(F)cc2)nc1)c1cccnc1 (stereo not drawn) [Example 323, Methyl 3-({[6-(4-fluorophenyl)pyridin-3-yl]carbonyl}amino)-3-pyridin-3-ylpropanoate]	≥ 1000
COc1ccc(C(Cc2cc(C)no2)NC(=O)c2ccc(-c3cccc(F)c3)nc2)cc1OC (stereo not drawn) [Example 55, N-[1-(3,4-Dimethoxyphenyl)-2-(3-methylisoxazol-5-yl)ethyl]-6-(3-fluorophenyl)nicotinamide]	11.1
CCC1CCN(CCNC(=O)c2ccc(-c3ccccc3)nc2)CC1 [Example 371, N-[2-(4-Ethylpiperidin-1-yl)ethyl]-6-phenylnicotinamide]	20.1
O=C(NCc1ccco1)c1ccc(-c2ccc(F)cc2)nc1 [Example 473, 6-(4-Fluorophenyl)-N-(2-furylmethyl)nicotinamide]	381
O=C(Nc1cccnc1)c1ccc(-c2ccc(F)cc2)nc1 [Example 328, 6-(4-Fluorophenyl)-N-pyridin-3-ylnicotinamide]	92
CN1CCc2nc(N3CCC(NC(=O)c4ccc(-c5cccc(F)c5)nc4)C3)ncc2C1 (stereo not drawn) [Example 90, 6-(3-Fluorophenyl)-N-[1-(6-methyl-5,6,7,8-tetrahydropyrido[4,3-d]pyrimidin-2-yl)pyrrolidin-3-yl]nicotinamide]	0.852
CCc1csc(CNC(=O)c2ccc(-c3cccc(F)c3)nc2)n1 [Example 61, N-[(4-Ethyl-1,3-thiazol-2-yl)methyl]-6-(3-fluorophenyl)nicotinamide]	5.48
COc1cccc(-c2ccc(C(=O)NC3CCOC3=O)cn2)c1 (stereo not drawn) [Example 293, 6-(3-Methoxyphenyl)-N-(2-oxotetrahydrofuran-3-yl)nicotinamide]	508
O=C(NC(CCc1ccccc1)c1nn[nH]n1)c1ccc(-c2cccc(F)c2)nc1 (stereo not drawn) [Example 62, 6-(3-Fluorophenyl)-N-[3-phenyl-1-(2H-tetrazol-5-yl)propyl]nicotinamide]	17.2
O=C(NCCNc1nccn2ccnc12)c1ccc(-c2cccc(F)c2)nc1 [Example 104, 6-(3-Fluorophenyl)-N-[2-(imidazo[1,2-a]pyrazin-8-ylamino)ethyl]nicotinamide]	3.43
CC(NC(=O)c1ccc(-c2ccccc2)nc1)c1ccccc1 (stereo not drawn) [Example 516, 6-Phenyl-N-(1-phenylethyl)nicotinamide]	31.9
COc1cccc(-c2ccc(C(=O)NCC3C(=O)Nc4ccccc43)cn2)c1 (stereo not drawn) [Example 313, 6-(3-Methoxyphenyl)-N-[(2-oxo-2,3-dihydro-1H-indol-3-yl)methyl]nicotinamide]	7.62
O=C(NC(CN1CCOCC1)c1ccccc1)c1ccc(-c2cccc(F)c2)nc1 (stereo not drawn) [Example 210, 6-(3-Fluorophenyl)-N-(2-morpholin-4-yl-1-phenylethyl)nicotinamide]	39.2
COC(=O)CCNC(=O)c1ccc(-c2cccc(C)c2)nc1 [Example 223, Methyl N-{[6-(3-methylphenyl)pyridin-3-yl]carbonyl}-beta-alaninate]	44.1
O=C(NCCCN1CCCC1=O)c1ccc(-c2ccccc2)nc1 [Example 350, N-[3-(2-Oxopyrrolidin-1-yl)propyl]-6-phenylnicotinamide]	6.8
O=C(NCC1CC2(CCN(Cc3ccccn3)CC2)CO1)c1ccc(-c2cccc(F)c2)nc1 (stereo not drawn) [Example 53, 6-(3-Fluorophenyl)-N-{[8-(pyridin-2-ylmethyl)-2-oxa-8-azaspiro[4.5]dec-3-yl]methyl}nicotinamide]	19.2
